# Assay results as given in US8420144B2, “Kokumi-imparting agent, method of using, and compositions containing same” (Ajinomoto Co., Inc., priority 2005, dated 2013).
# Assays:
# [1] = Quantitative sensory evaluation test: imparting kokumi to curry sauce; format: in vivo, human; conditions: n=12, 0 control, 3 intense, 5 extremely intense
# Protocol: The intensity of the activity for imparting kokumi to curry sauce of each peptide having confirmed calcium receptor activation activity was measured by a quantitative sensory evaluation test, performed as follows: to curry sauce prepared in a conventional manner by using commercially available curry roux, samples of either γ-Glu-Cys-Gly (glutathione) or γ-Glu-Val-Gly were added to a concentration of 0.0001 to 1 g/dl, and the intensity of kokumi-imparting activity was measured for each sample. The curry sauces with the samples that became acidic after dissolution of the samples with respect to the curry soup without the samples were adjusted with NaOH to pH not lower or higher by 0.2 than pH of the curry soup without the samples before use. Sensory evaluation scores were used to evaluate as follows: 0 points for the control sample, 3 points for intense activity as compared to the control, and 5 points for extremely intense activity as compared to the control, and the test was performed with n=12.
# [2] = target: T1, human calcium receptor (Homo sapiens, UniProt P41180); assay: Calcium receptor activation activity: Ca ion concentration-dependent Cl ionic current in Xenopus laevis oocyte expression system; format: cell-based
# T1 construct: expressed in transfected cells; host or cells: Xenopus laevis oocytes microinjected with cRNA; gene amplified by PCR from human kidney cDNA (Clontech)
# T1 sequence (P41180 20-1078): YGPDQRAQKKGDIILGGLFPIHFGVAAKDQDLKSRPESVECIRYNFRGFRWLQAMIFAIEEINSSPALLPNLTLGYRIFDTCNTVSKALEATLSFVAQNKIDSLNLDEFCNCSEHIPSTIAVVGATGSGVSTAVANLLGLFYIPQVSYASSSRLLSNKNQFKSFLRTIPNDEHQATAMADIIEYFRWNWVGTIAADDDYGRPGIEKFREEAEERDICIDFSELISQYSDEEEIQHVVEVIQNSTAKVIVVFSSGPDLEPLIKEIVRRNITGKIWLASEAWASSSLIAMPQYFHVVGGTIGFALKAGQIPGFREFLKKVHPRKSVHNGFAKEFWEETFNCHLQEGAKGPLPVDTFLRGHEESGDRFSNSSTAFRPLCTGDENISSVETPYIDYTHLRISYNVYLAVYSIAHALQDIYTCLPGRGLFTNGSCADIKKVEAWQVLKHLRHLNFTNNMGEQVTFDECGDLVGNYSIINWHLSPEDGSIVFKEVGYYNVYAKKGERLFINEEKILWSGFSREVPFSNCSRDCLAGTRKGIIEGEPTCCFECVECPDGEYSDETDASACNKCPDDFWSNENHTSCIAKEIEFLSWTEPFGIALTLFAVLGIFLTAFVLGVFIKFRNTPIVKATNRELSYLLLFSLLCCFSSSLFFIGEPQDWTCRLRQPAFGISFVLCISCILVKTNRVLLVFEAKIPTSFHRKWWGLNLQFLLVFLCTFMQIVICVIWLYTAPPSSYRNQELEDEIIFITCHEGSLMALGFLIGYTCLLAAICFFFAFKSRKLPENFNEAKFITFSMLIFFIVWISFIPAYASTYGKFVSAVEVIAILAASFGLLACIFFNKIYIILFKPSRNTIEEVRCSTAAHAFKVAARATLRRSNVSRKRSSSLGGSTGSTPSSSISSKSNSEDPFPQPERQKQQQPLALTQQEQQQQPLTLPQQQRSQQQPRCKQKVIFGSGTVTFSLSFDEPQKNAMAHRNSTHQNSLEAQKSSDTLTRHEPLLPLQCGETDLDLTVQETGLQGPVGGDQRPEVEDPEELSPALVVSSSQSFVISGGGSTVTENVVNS
# Protocol: To evaluate calcium receptor activation activity, a Ca ion concentration-dependent Cl ionic current measuring method using a Xenopus laevis oocyte expression system was used. If each activator is added to Xenopus laevis oocytes expressing the calcium receptor, intracellular Ca ions increase. Then, the Ca ion concentration-dependent Cl channel opens, and the intracellular current value changes as an ionic current. By measuring the change in this intracellular current value, the presence or absence of calcium receptor activation activity can be determined.
# Specifically, the abdomen of Xenopus laevis was opened, and an egg batch was taken out and treated with a 1% collagenase solution at 20° C. for 2 hours to obtain individual oocytes. Into the oocytes, 50 nl of 1 μg/μl receptor cRNA or 50 nl of sterilized water per oocyte was introduced by using a micro glass capillary, and the oocytes were cultured at 18° C. for 2 or 3 days. For the culture, a solution obtained by adding 2 mM pyruvic acid, 10 U/ml of penicillin, and 10 μg/ml of streptomycin to the solution in Example 2 was used. After the culture, a test solution was added to the oocytes containing either the cRNA or sterilized water. Electrophysiological measurement was performed by using an amplifier, Geneclamp500 (Axon), and recording software, AxoScope 9.0 (Axon). The oocytes were voltage-clamped at −70 mV by the double electrode voltage clamp method, and the intracellular current was measured via the Ca ion concentration-dependent Cl ion channel. The maximum value of the intracellular current was considered as the response current value.
# Calcium receptor activation activity of L-amino acids was evaluated by using the method described in Example 13. That is, oocytes containing either cRNA of the calcium receptor or sterilized water were prepared, and voltage-clamped at −70 mV by the double electrode voltage clamp method. To the voltage-clamped oocytes, alanine (10 mM), arginine (10 mM), asparagine (10 mM), aspartic acid (10 mM), cysteine (10 mM), glutamine (10 mM), glutamic acid (10 mM), glycine (10 mM), histidine (10 mM), isoleucine (10 mM), leucine (10 mM), lysine (10 mM), methionine (10 mM), phenylalanine (10 mM), proline (10 mM), serine (10 mM), threonine (10 mM), tryptophan (10 mM), tyrosine (10 mM), valine (10 mM), ornithine (10 mM), taurine (10 mM), or hydroxyproline (10 mM) was added, and Ca ion concentration-dependent Cl response current was measured. […] As for the aforementioned amino acids, the activation activity was reported in Proc. Natl. Acad. Sci. USA, 2000 Apr. 25, 97(9):4814-9.
# Calcium receptor activation activity of D-cysteine was evaluated by using the method described in Example 13. That is, oocytes containing either cRNA of the calcium receptor or sterilized water were prepared, and voltage-clamped at −70 mV by the double electrode voltage clamp method. To the voltage-clamped oocytes, D-cysteine (10 mM), L-cysteine (10 mM), D-tryptophan (10 mM), or L-tryptophan (10 mM) was added, and Ca ion concentration-dependent Cl response current was measured.
# Calcium receptor activation activity of peptides was evaluated by using the method described in Example 13. That is, oocytes containing either cRNA of the calcium receptor or sterilized water were prepared, and voltage-clamped at −70 mV by the double electrode voltage clamp method.
# Calcium receptor activation activity of peptides was evaluated in the same manner as that of Example 17. Each of the peptides shown in Table 2 was added to voltage-clamped oocytes at 1000 μM, 300 μM, 100 μM, 30 μM, 10 μM, 3 μM, 1 μM, 0.3 μM, and 0.1 μM, and Ca ion concentration-dependent Cl response current was measured.
SMILES,Intensity of kokumi: Aftertaste ([1]; 0.01 g/dl) [points],Intensity of kokumi: First and middle taste ([1]; 0.01 g/dl) [points],"calcium receptor activation activity (Ca ion concentration-dependent Cl response current) ([2]; 50 μM peptide, oocytes voltage-clamped at −70 mV)",Intensity of kokumi: Aftertaste ([1]; 0.001 g/dl) [points],Intensity of kokumi: First and middle taste ([1]; 0.001 g/dl) [points],Intensity of kokumi: Aftertaste ([1]; 0.005 g/dl) [points],Intensity of kokumi: First and middle taste ([1]; 0.005 g/dl) [points],Intensity of kokumi: Aftertaste ([1]; 0.1 g/dl) [points],Intensity of kokumi: First and middle taste ([1]; 0.1 g/dl) [points],"Activity (lowest concentration for which current was detected) ([2]; added at 1000, 300, 100, 30, 10, 3, 1, 0.3 and 0.1 μM) [µM]"
"N[C@@H](CCC(=O)N[C@@H](CS)C(=O)NCC(=O)O)C(=O)O [γ-Glu-Cys-Gly, reference compound]",3.0,3.0,definitive calcium receptor activation activity,,,,,,,
CC(C)[C@H](NC(=O)CC[C@H](N)C(=O)O)C(=O)NCC(=O)O [γ-Glu-Val-Gly],5.0,5.0,,3.0,2.5,4.0,3.5,5.0,5.0,0.1
